≈ marks a conversion by molar mass, not a printed value. Where two headings read alike, the source gives them in different places.
Experiments:
[1] = test system: Micrococcus luteus ATCC9341; assay: Antibacterial test, agar plate dilution method (MIC); format: cell-based; details: MH agar, 37°C, 18 hours
Protocol: (§1) The antibacterial activities were tested by an agar plate dilution method in accordance with the standard method of The Japanese Chemotherapy Society [Chemotherapy, Vol. 29, 76-79 (1981)].
(§2) A Mueller-Hinton (MH) agar liquid medium of a test microorganism was cultured overnight at 37°C and the resultant culture medium was diluted with a buffered saline gelatin (BSG) solution to contain approximately 10⁶ cells of the test microorganisms per milliliter, and then the diluted solution was inoculated with a micro-planter at the rate of approximately 5 microliters on a MH agar medium containing a test compound. This medium was then incubated at 37°C for 18 hours. The minimum inhibitory concentration (MIC) is determined as a minimum concentration in which no test microorganism could grow. It is noted here that the test organisms used were all standard strains.

[2] = test system: Enterobacter aerogenes ATCC1304; assay: as above; format: cell-based; details: Klebsiella aerogenes
Protocol: as §1, §2

[3] = test system: Morganella morganii IFO3848; assay: as above; format: cell-based; details: MH agar, 37°C, 18 hours
Protocol: as §1, §2

[4] = test system: Enterobacter cloacae 963; assay: as above; format: cell-based; details: MH agar, 37°C, 18 hours
Protocol: as §1, §2

[5] = test system: Salmonella enteritidis G14; assay: as above; format: cell-based; details: Salmonella enterica
Protocol: as §1, §2

[6] = test system: Bacillus subtilis ATCC6633; assay: as above; format: cell-based; details: MH agar, 37°C, 18 hours
Protocol: as §1, §2

[7] = test system: Salmonella schottmuelleri 8006; assay: as above; format: cell-based; details: MH agar, 37°C, 18 hours
Protocol: as §1, §2

[8] = test system: Klebsiella pneumoniae PCI-602; assay: as above; format: cell-based; details: PCI602, MH agar, 37°C, 18 hours
Protocol: as §1, §2

[9] = test system: Proteus vulgaris OX-19; assay: as above; format: cell-based; details: OX19, MH agar, 37°C, 18 hours
Protocol: as §1, §2

[10] = test system: Providencia rettgeri IFO 3850; assay: as above; format: cell-based; details: IFO3850, MH agar, 37°C, 18 hours
Protocol: as §1, §2

[11] = test system: Pseudomonas aeruginosa IFO 3445; assay: as above; format: cell-based; details: IFO3445, MH agar, 37°C, 18 hours
Protocol: as §1, §2

[12] = test system: Proteus vulgaris HX-19; assay: as above; format: cell-based; details: HX19, MH agar, 37°C, 18 hours
Protocol: as §1, §2

[13] = test system: Salmonella paratyphi 1015; assay: as above; format: cell-based; details: Salmonella enterica, MH agar, 37°C, 18 hours
Protocol: as §1, §2

[14] = test system: Salmonella typhi 901; assay: as above; format: cell-based; details: Salmonella enterica, 18 h
Protocol: as §1, §2

[15] = test system: Staphylococcus aureus FDA 209PJC-1; assay: as above; format: cell-based; details: FDA209PJC1, MH agar, 37°C, 18 hours
Protocol: as §1, §2

[16] = test system: Staphylococcus aureus MS353; assay: as above; format: cell-based; details: MH agar, 37°C, 18 hours
Protocol: as §1, §2

[17] = test system: Proteus mirabilis IFO3849; assay: as above; format: cell-based
Protocol: as §1, §2

[18] = test system: Escherichia coli NIHJ JC-2; assay: as above; format: cell-based; details: NIHJJC2, MH agar, 37°C, 18 hours
Protocol: as §1, §2

[19] = test system: Streptococcus pyogenes Cook; assay: as above; format: cell-based; details: MH agar, 37°C, 18 hours
Protocol: as §1, §2

[20] = test system: Pseudomonas aeruginosa NCTC 10490; assay: as above; format: cell-based; details: NCTC10490, MH agar, 37°C, 18 hours
Protocol: as §1, §2

[21] = test system: Serratia marcescens IAM1184; assay: as above; format: cell-based; details: MH agar, 37°C, 18 hours
Protocol: as §1, §2

[22] = test system: Salmonella typhimurium IID971; assay: as above; format: cell-based; details: Salmonella enterica, MH agar, 37°C, 18 hours
Protocol: as §1, §2

[23] = test system: Escherichia coli K12 C600; assay: as above; format: cell-based; details: K12C600, MH agar, 37°C, 18 hours
Protocol: as §1, §2

[24] = test system: Staphylococcus aureus Terajima; assay: as above; format: cell-based; details: MH agar, 37°C, 18 hours
Protocol: as §1, §2

[25] = test system: male mice of CrjCD(SD) strain; assay: Toxicity study in mice, subcutaneous administration, observation for one week; format: in vivo; details: 500 mg/kg, subcutaneously
Protocol: Toxicological studies were carried out using a group of 10 male mice of CrjCD(SD) strain weighing from 20 to 23 grams. A solution containing the carbapenem compound (11) of the present invention obtained by Example 3 was administered subcutaneously to the mice and subjected to observations for one week.

[26] = target: T1, Swine Kidney Dehydropeptidase-I (DHP-I) (Sus scrofa, UniProt P22412); assay: Hydrolysis activity against DHP-I enzyme substrate by late assay (decrease in absorbency); format: biochemical; details: final substrate concentration 100µM; 37°C, 10 minutes; pH 7.1
T1 construct: made soluble by treatment with butanol and purified by the ammonium sulfate fraction method, thereby producing DHP-I enzyme; from tissue; host or cells: swine kidney
T1 sequence (P22412 17-384): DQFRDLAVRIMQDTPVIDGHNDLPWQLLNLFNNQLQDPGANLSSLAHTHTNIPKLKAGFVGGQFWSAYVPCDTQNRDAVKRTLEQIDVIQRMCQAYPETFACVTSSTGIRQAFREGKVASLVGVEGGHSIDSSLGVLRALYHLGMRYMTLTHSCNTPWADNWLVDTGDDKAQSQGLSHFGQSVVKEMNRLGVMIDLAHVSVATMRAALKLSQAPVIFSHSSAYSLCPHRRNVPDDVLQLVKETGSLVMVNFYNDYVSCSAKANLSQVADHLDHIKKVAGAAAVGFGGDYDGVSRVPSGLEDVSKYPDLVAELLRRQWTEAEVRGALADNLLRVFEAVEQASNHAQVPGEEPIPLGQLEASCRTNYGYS
Protocol: The swine kidney (8 kg) was homogenized and the enzyme protein was allowed to precipitate. After a connective lipid was removed with acetone, the resultant material was made soluble by treatment with butanol and purified by the ammonium sulfate fraction method, thereby producing DHP-I enzyme from a 75 % ammonium sulfate fraction. The DHP-I enzyme was then adjusted to give an enzyme concentration of 25 mg/10 ml (phosphate buffer, pH 7.1), and divided into 1 ml portions. The portions were frozen and stored at -40°C or less until use. Glycyl dehydrophenylalanine (Gl-dh-Ph) and imipenem were employed as control compounds, and they were adjusted in situ each to give a concentration of 117µM with the same sodium phosphate buffer solution. […] The solution was then incubated at 37°C for 10 minutes. The initial velocity of hydrolysis of the substrate was measured from a decrease in absorbency at a particular λmax of each of the substrates. A blank test was conducted in substantially the same manner as above by adding 0.2 ml of the sodium phosphate buffer solution (pH 7.1) to 1.2 ml of the above substrate.

[27] = target: T1, Swine Kidney Dehydropeptidase-I (DHP-I); assay: Stability of test compounds against DHP-I by HPLC; format: in vitro ADME; details: 37°C, 4.5 hours, Substrate Concentration: 100 µM
Protocol: The swine kidney (8 kg) was homogenized and the enzyme protein was allowed to precipitate. After a connective lipid was removed with acetone, the resultant material was made soluble by treatment with butanol and purified by the ammonium sulfate fraction method, thereby producing DHP-I enzyme from a 75 % ammonium sulfate fraction. The DHP-I enzyme was then adjusted to give an enzyme concentration of 25 mg/10 ml (phosphate buffer, pH 7.1), and divided into 1 ml portions. The portions were frozen and stored at -40°C or less until use. The test compound was adjusted in situ to give a concentration of 117µM with a 50 mM sodium phosphate buffer solution (pH =7.1). Glycyl dehydrophenylalanine (Gl-dh-Ph) and imipenem were employed as control compounds, and they were adjusted in situ each to give a concentration of 117µM with the same sodium phosphate buffer solution. The test compound according to the present invention and the control compounds were treated in substantially the same manner as (1) above. The incubation, however, was conducted at 37°C for 4.5 hours or for 24 hours. The degree of hydrolysis of the compounds each after the test periods was measured by the HPLC method.

SMILES | MIC [1] [µg/mL] | MIC [3] [µg/mL] | MIC [4] [µg/mL] | MIC [6] [µg/mL] | MIC [7] [µg/mL] | MIC [8] [µg/mL] | MIC [9] [µg/mL] | MIC [10] [µg/mL] | MIC [11] [µg/mL] | MIC [12] [µg/mL] | MIC [13] [µg/mL] | MIC [14] [µg/mL] | MIC [15] [µg/mL] | MIC [16] [µg/mL] | MIC [18] [µg/mL] | MIC [19] [µg/mL] | MIC [20] [µg/mL] | MIC [21] [µg/mL] | MIC [22] [µg/mL] | MIC [23] [µg/mL] | further results
C[C@@H](O)[C@H]1C(=O)N2C(C(=O)[O-])=C(SCCn3cnc[n+]3C)[C@H](C)[C@H]12 [Compound (11), (1R,5S,6S)-6-[(R)-1-hydroxyethyl]-1-methyl-2-[2-(1-methyl-1,2,4-triazolium-2-yl)ethyl]thio-carbapenem-3-carboxylate] | 0.1 (≈ 0.284 µM) | 0.39 (≈ 1.11 µM) | 0.1 (≈ 0.284 µM) | 0.2 (≈ 0.568 µM) | 0.39 (≈ 1.11 µM) | 0.2 (≈ 0.568 µM) | 0.78 (≈ 2.21 µM) | 0.05 (≈ 0.142 µM) | 1.56 (≈ 4.43 µM) | 0.78 (≈ 2.21 µM) | 0.78 (≈ 2.21 µM) | 0.05 (≈ 0.142 µM) | 0.1 (≈ 0.284 µM) | 0.05 (≈ 0.142 µM) | 0.1 (≈ 0.284 µM) | 0.05 (≈ 0.142 µM) | 0.78 (≈ 2.21 µM) | 0.2 (≈ 0.568 µM) | 0.2 (≈ 0.568 µM) | 0.78 (≈ 2.21 µM) | MIC ([2]; Enterobacter aerogenes ATCC1304, MH agar, 37°C, 18 hours, read-out: MIC): 0.78 µg/mL (≈ 2.21 µM); MIC ([5]; Salmonella enteritidis G14, MH agar, 37°C, 18 hours, read-out: MIC): 0.78 µg/mL (≈ 2.21 µM); MIC ([17]; Proteus mirabilis IFO3849, MH agar, 37°C, 18 hours, read-out: MIC): 1.56 µg/mL (≈ 4.43 µM); MIC [24]: 0.025 µg/mL (≈ 0.0709 µM); toxicity: survival and abnormal observations [25]: alive without any abnormal observations
NCC(=O)NC(=Cc1ccccc1)C(=O)O [Gl-dh-Ph, Glycyl dehydrophenylalanine] | – | – | – | – | – | – | – | – | – | – | – | – | – | – | – | – | – | – | – | – | initial velocity of hydrolysis [26]: 17.4 µM/min
C[C@@H](O)[C@H]1C(=O)N2C(C(=O)O)=C(SCCNC=N)C[C@H]12 [Imipenem, imipenem] | < 0.006 | 3.13 (≈ 10.5 µM) | 0.78 (≈ 2.61 µM) | 0.025 (≈ 0.0835 µM) | 0.78 (≈ 2.61 µM) | 0.2 (≈ 0.668 µM) | 3.13 (≈ 10.5 µM) | 0.05 (≈ 0.167 µM) | 0.78 (≈ 2.61 µM) | 3.13 (≈ 10.5 µM) | 1.56 (≈ 5.21 µM) | 0.05 (≈ 0.167 µM) | 0.013 (≈ 0.0434 µM) | 0.013 (≈ 0.0434 µM) | 0.1 (≈ 0.334 µM) | < 0.006 | 0.39 (≈ 1.3 µM) | 0.2 (≈ 0.668 µM) | 0.2 (≈ 0.668 µM) | 3.13 (≈ 10.5 µM) | initial velocity of hydrolysis [26]: 0.56 µM/min; MIC ([2]; ATCC1304, 18 h): 1.56 µg/mL (≈ 5.21 µM); MIC ([5]; ENTERITIDIS, 18 h): 1.56 µg/mL (≈ 5.21 µM); MIC ([17]; Proteus mirabilis, IFO3849, 18 h): 6.25 µg/mL (≈ 20.9 µM); MIC [24]: < 0.006 µg/mL; DEGREES OF HYDROLYSIS BY DHP-I [27]: 77.6 µM

From patent publication EP0358085A1, “(1R,5S,6S)-6-[(R)-1-Hydroxyethyl]-1-methyl-2-[(1-alkyl-1,2,4-triazolium-2-yl)alkyl]-thio-carbapenem-3-carboxylic acid derivatives” (LEDERLE (JAPAN) LTD., priority 1988, dated 1990)
